Experiments:
[1] = molecular target: T1, Desulfovibrio gigas rubredoxin (Megalodesulfovibrio gigas, UniProt P00270); test: Thermal denaturation of rubredoxin, decrease in absorbance at 494 nm at 90°C; assay type: biochemical; details: 30 min incubation of rubredoxin at 90 °C, without solute 73%
T1 construct: Rubredoxin was obtained and purified as described by LeGall and Dragoni [15] from Desulfovibrio gigas; made in house; host or cells: Desulfovibrio gigas (natural source, not recombinant)
Procedure: Rubredoxin was obtained and purified as described by LeGall and Dragoni from Desulfovibrio gigas. This protein was then stored at -20°C in 10 mM Tris-HCl buffer at pH 7.6.
The most informative feature of the UV-Vis absorption spectrum of rubredoxins comes from the signals with maxima centered at 380, 494, and 570 nm which are attributed to metal to ligand transitions. These bands are bleached when rubredoxin undergoes de naturation.
In the experiments designed to evaluate denaturation caused by thermal stress, rubredoxin was prepared at a concentration of 84 µg . ml^-1 in 10 mM Tris-HCI buffer pH 7.6 and the incubation mixtures, with or without the additions of solutes, were placed in 400 µl quartz cells in a Beckman spectrophotometer with a thermostated cell compartment. The protein was subjected to a temperature of 90°C and the decrease in the absorbance at 494 nm was monitored as a function of time.
The protective effect of 1,1'-di-glycerol-phosphate (at a concentration of 100 mM) was compared with that of potassium phosphate (100 mM) and glycerol (200 mM) (Figure 4). After 30 min incubation of rubredoxin at 90 °C the absorbance decreased by only 8.5% when 1,1'-di-glycerol-phosphate was present, whereas in the absence of any solute a decrease of 73% was observed. […] In fact, the decreases in absorption are as high as 61 and 58 % in the presence of 200 mM glycerol or 100 mM potassium phosphate, respectively.

[2] = molecular target: T2, yeast alcohol dehydrogenase (ADH) (Saccharomyces cerevisiae, UniProt P00330); test: Thermostability of alcohol dehydrogenase, residual activity after incubation at 50°C; assay type: biochemical, baker's yeast; details: 10 min incubation at 50°C, without solute 33%
T2 construct: Alcohol dehydrogenase (Sigma, baker's yeast) was obtained in the lyophilized form and used without further purification; purchased Sigma; host or cells: baker's yeast
T2 sequence (P00330 2-348 limits assumed): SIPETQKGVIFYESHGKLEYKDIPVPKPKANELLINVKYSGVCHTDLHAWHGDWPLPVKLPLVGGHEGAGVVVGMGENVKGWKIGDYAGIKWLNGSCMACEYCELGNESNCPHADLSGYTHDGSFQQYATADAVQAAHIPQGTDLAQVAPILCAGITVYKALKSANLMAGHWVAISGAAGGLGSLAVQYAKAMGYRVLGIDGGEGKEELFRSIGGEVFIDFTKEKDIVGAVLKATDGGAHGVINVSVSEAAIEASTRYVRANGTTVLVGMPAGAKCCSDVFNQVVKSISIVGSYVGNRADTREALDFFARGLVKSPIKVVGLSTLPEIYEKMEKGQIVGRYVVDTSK
Procedure: (§1) Lactate dehydrogenase, LDH (Sigma Type III, rabbit muscle), purchased as a suspension in ammonium sulphate, was centrifuged, the supernatant was discarded, and the enzyme was suspended in 50 mM potassium phosphate pH 7.5. Alcohol dehydrogenase (Sigma, baker's yeast) was obtained in the lyophilized form and used without further purification. Enzymes were assayed using a Beckman spectrophotometer with a the rmostated cell compartment at 30°C.
(§2) In the experiments where thermal stress was imposed, enzymes were prepared at a concentration of 50 mg . ml^-1 in 20 mM potassium phosphate buffer, and the reaction mixtures were placed in Eppendorf tubes, incubated in a water-bath at 50°C for 10 minutes, cooled in an ice-bath and assayed immediately under standard conditions.
(§3) The effect of 1,1'-di-glycerol-phosphate on the thermostability of rabbit muscle LDH and baker's yeast ADH was compared to that of glycerol, a compound that is generally described as an enzyme protector. The percentage of residual activity in relation to pre-incubation activity, measured after 10 min of incubation at 50°C, is shown in Figure 5, for rabbit muscle LDH (A) and yeast ADH (B).

[3] = molecular target: T3, rabbit muscle lactate dehydrogenase (LDH) (Oryctolagus cuniculus, UniProt P13491); test: Thermostability of lactate dehydrogenase, residual activity after incubation at 50°C; assay type: biochemical; details: 100 mM solute; 10 min of incubation at 50°C; without solute 30%
T3 construct: Lactate dehydrogenase, LDH (Sigma Type III, rabbit muscle), purchased as a suspension in ammonium sulphate; purchased Sigma Type III; host or cells: rabbit muscle
Procedure: as §1, §2, §3
The effect of the concentration of 1,1'-di-glycerol-phosphate on the thermal stability of LDH was also monitored, and the results obtained after 10 min incubation at 50°C are shown in Figure 6. […]

T1 sequence (P00270 whole entry): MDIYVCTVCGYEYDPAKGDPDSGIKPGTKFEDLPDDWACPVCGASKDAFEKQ

SMILES	decrease in absorbance at 494 nm ([1]; 100 mM solute) [%]	activity retained (of the initial activity) ([2]; 100 mM solute) [%]	residual activity in relation to pre-incubation activity [3] [%]	decrease in absorbance at 494 nm ([1]; 200 mM solute) [%]	activity retained (of the initial activity) ([2]; 200 mM solute) [%]
O=P(O)(O)O [potassium phosphate]	58				
O=P(O)(OCC(O)CO)OCC(O)CO (stereo not shown) [1,1'-di-glycerol-phosphate]	8.5	88	85		
OCC(O)CO [glycerol]			37	61	31

From patent EP0965268B1, “Thermostabilization, osmoprotection, and protection against desiccation of enzymes, cell components and cells by di-glycerol-phosphate” (bitop Aktiengesellschaft für biotechnische Optimierung, priority 1998, dated 1999)
